According to patent US20140023611A1 (priority 2010, published 2014):
pIC50: −log10 of the molar value.

Target: T1, rat NaP2b (SLC34A2) (Rattus norvegicus, UniProt Q9JJ09)
T1 construct: host or cells: HEK293
T1 sequence (Q9JJ09 1-695): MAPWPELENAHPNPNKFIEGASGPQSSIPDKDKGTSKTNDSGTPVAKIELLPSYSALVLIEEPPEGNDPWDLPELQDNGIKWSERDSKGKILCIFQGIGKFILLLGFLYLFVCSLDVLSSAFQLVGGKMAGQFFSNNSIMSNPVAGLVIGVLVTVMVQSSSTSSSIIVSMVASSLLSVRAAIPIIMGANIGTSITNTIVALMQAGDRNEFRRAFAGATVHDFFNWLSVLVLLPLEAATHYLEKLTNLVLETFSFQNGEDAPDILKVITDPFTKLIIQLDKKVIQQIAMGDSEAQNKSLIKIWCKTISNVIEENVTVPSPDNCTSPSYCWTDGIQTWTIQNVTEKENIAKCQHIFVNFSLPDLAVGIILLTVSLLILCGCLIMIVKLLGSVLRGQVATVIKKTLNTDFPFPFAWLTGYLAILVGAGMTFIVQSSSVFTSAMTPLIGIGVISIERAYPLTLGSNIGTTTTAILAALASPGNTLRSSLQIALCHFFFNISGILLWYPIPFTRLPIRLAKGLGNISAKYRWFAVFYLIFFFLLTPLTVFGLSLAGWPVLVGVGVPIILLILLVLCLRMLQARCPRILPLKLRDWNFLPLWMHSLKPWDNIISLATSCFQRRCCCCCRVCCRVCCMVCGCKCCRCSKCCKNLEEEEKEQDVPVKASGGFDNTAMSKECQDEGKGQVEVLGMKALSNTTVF
Assay: Inhibition of NaP2b-mediated Pi (33P) uptake in transfected HEK293 cells, rat NaP2b
Type: cell-based
Settings: 33P Pi uptake, 0.1 mM phosphate, value given as pIC50 range
Method in brief: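 HEK293 cells were transiently transfected with NaP2b cDNA using Lipofectamine and grown near confluence. Compounds were tested at twelve concentrations from 0.1 nM to 30 uM in duplicate, and 33P-phosphate uptake was counted by scintillation after lysis. Results are expressed as pIC50.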

pIC50 | Structure (SMILES)
4.50 to 5.00 | O=C(O)CCSCc1cccc(C(=O)Nc2ccc(N3CCCCC3)cc2-c2cc(C(=O)NCc3ccc(-n4cccn4)cc3)ccn2)c1 [Example 79, 3-(3-((2-(4-((4-(1H-Pyrazol-1-yl)benzyl)carbamoyl)pyridin-2-yl)-4-(piperidin-1-yl)phenyl)carbamoyl)benzylthio)propanoic acid]
5.10 to 6.00 | CC(=O)N1CCN(CCN(C)C(=O)c2cccc(C(=O)Nc3ccc(N4CCCCC4)cc3-c3cc(C(=O)NCc4cccc(C(F)(F)F)c4)ccn3)c2)CC1 [Example 81, N1-(2-(4-Acetylpiperazin-1-yl)ethyl)-N1-methyl-N3-(4-(piperidin-1-yl)-2-(4-(3-(trifluoromethyl)benzylcarbamoyl)pyridin-2-yl)phenyl)isophthalamide]
5.10 to 6.00 | CN1CCN(CCN(C)C(=O)c2cccc(C(=O)Nc3ccc(N4CCCCC4)cc3-c3cc(C(=O)NCc4cccc(C(F)(F)F)c4)ccn3)c2)CC1 [Example 82, N1-Methyl-N1-(2-(4-methylpiperazin-1-yl)ethyl)-N3-(4-(piperidin-1-yl)-2-(4-((3-(trifluoromethyl)benzyl)carbamoyl)pyridin-2-yl)phenyl)isophthalamide]
5.10 to 6.00 | CN(CCN1CCN(S(C)(=O)=O)CC1)C(=O)c1cccc(C(=O)Nc2ccc(N3CCCCC3)cc2-c2cc(C(=O)NCc3cccc(C(F)(F)F)c3)ccn2)c1 [Example 83, N1-methyl-N1-(2-(4-(methylsulfonyl)piperazin-1-yl)ethyl)-N3-(4-(piperidin-1-yl)-2-(4-(3-(trifluoromethyl)benzylcarbamoyl)pyridin-2-yl)phenyl)isophthalamide]
5.10 to 6.00 | O=C(O)CCSCc1cccc(C(=O)Nc2ccc(N3CCCCC3)cc2-c2cc(C(=O)Nc3cccc(C(F)(F)F)c3)ccn2)c1 [Example 84]
5.10 to 6.00 | Cc1cc(C(=O)NCc2cccc(C(F)(F)F)c2)cc(-c2cc(N3CCCCC3)ccc2NC(=O)c2cccc(CSCCC(=O)O)c2)n1 [Example 85]
5.10 to 6.00 | O=C(O)CCSCc1cccc(C(=O)Nc2ccc(N3CCCCC3)cc2-c2cc(C(=O)NCc3cccc(C(F)(F)F)c3)cc(Cl)n2)c1 [Example 86]
4.50 to 5.00 | O=C(O)CCSCc1cccc(C(=O)Nc2ccc(N3CCCCC3)cc2-c2cc(C(=O)NCc3cccc(C(F)(F)F)c3)ncn2)c1 [Example 87]
4.50 to 5.00 | O=C(O)CCSCc1cccc(C(=O)Nc2ccc(N3CCCCC3)cc2-c2nccc(C(=O)NCc3cccc(C(F)(F)F)c3)c2F)c1 [Example 88]
5.10 to 6.00 | O=C(O)CCSCc1cccc(C(=O)Nc2ccc(N3CCCCC3)cc2-c2cc(C(=O)NCc3cccc(C(F)(F)F)c3)c(F)cn2)c1 [Example 89]
4.50 to 5.00 | O=C(O)CCSCc1cccc(C(=O)Nc2ccc(N3CCCCC3)cc2-c2cc(C(=O)NCc3cccc(C(F)(F)F)c3)c(Cl)cn2)c1 [Example 90]
4.50 to 5.00 | O=C(NCc1cccc(C(F)(F)F)c1)c1ccnc(-c2cc(N3CCCCC3)ccc2NC(=O)c2cccc(CSCCCS(=O)(=O)O)c2)c1 [Example 91]
5.10 to 6.00 | CC(C)(CCO)SCc1cccc(C(=O)Nc2ccc(N3CCCCC3)cc2-c2cc(C(=O)NCc3cccc(C(F)(F)F)c3)ccn2)c1 [Example 92]
4.50 to 5.00 | O=C(O)CCSCc1cccc(C(=O)Nc2ccc(N3CCCCC3)cc2-c2cc(C(F)(F)c3cccc(C(F)(F)F)c3)ccn2)c1 [Example 93]
4.50 to 5.00 | O=C(O)CCSCc1cccc(C(=O)Nc2ccc(N3CCCCC3)cc2-c2cc(Oc3cccc(C(F)(F)F)c3)ccn2)c1 [Example 94]
4.50 to 5.00 | C[C@@H]1CN(c2ccc(NC(=O)c3cccc(C(=O)N(C)CCN4CCOCC4)c3)c(-c3cc(C(=O)NCc4cccc(C(F)(F)F)c4)ccn3)c2)C[C@H](C)O1 [Example 95]
4.50 to 5.00 | CN(CCN1CCOCC1)C(=O)c1cccc(C(=O)Nc2ccc(N3CCN(c4ncccn4)CC3)cc2-c2cc(C(=O)NCc3cccc(C(F)(F)F)c3)ccn2)c1 [Example 96]
4.50 to 5.00 | O=C(O)CCSCc1cccc(C(=O)Nc2ccc(N3CCCCC3)cc2-c2cc(OCc3cccc(C(F)(F)F)c3)ccn2)c1 [Example 98]

pIC50 | Structure (SMILES)
4.50 to 5.00 | CN(CCN1CCOCC1)C(=O)c1cccc(C(=O)Nc2ccc(N3CCCCC3)cc2-c2cc(OCc3cccc(C(F)(F)F)c3)ccn2)c1 [Example 99]
5.10 to 6.00 | CC(C)OCCOc1ccc(NC(=O)c2cccc(C(=O)N(C)CCN3CCOCC3)c2)c(-c2cc(C(=O)NCc3cccc(C(F)(F)F)c3)ccn2)c1 [Example 101]
4.50 to 5.00 | COC[C@@H]1CCCN1c1ccc(NC(=O)c2cccc(C(=O)N(C)CCN3CCOCC3)c2)c(-c2cc(C(=O)NCc3cccc(C(F)(F)F)c3)ccn2)c1 [Example 102]
4.50 to 5.00 | COC[C@H]1CCCN1c1ccc(NC(=O)c2cccc(C(=O)N(C)CCN3CCOCC3)c2)c(-c2cc(C(=O)NCc3cccc(C(F)(F)F)c3)ccn2)c1 [Example 103]
4.50 to 5.00 | CN(CCN1CCOCC1)C(=O)c1cccc(C(=O)Nc2ccc(N3CCCCC3)cc2-c2cc(NCc3cccc(C(F)(F)F)c3)ccn2)c1 [Example 104]
5.10 to 6.00 | C[C@H]1CCCCN1c1ccc(NC(=O)c2cccc(C(=O)N(C)CCN3CCOCC3)c2)c(-c2cc(C(=O)NCc3cccc(C(F)(F)F)c3)ccn2)c1 [Example 105]
4.50 to 5.00 | CN(CCN1CCOCC1)C(=O)c1cccc(C(=O)Nc2ccc(N3CCCCC3)cc2-c2cc(C(F)(F)CCc3cccc(C(F)(F)F)c3)ccn2)c1 [Example 106]
4.50 to 5.00 | CN(CCN1CCOCC1)C(=O)c1cccc(C(=O)Nc2ccc(N3CCC(C)(C)CC3)cc2-c2cc(C(=O)NCc3cccc(C(F)(F)F)c3)ccn2)c1 [Example 108]
5.10 to 6.00 | CN(CCN1CCOCC1)C(=O)c1cccc(C(=O)Nc2ccc(N3CCCCC3)cc2-c2cc(SCc3ccccc3)ccn2)c1 [Example 109]
5.10 to 6.00 | CN(CCc1ccccn1)C(=O)c1cccc(C(=O)Nc2ccc(N3CCCCC3)cc2-c2cc(C(=O)NCc3cccc(C(F)(F)F)c3)ccn2)c1 [Example 110]
4.50 to 5.00 | CN(CCN1CCOCC1)C(=O)c1cccc(C(=O)Nc2ccc(N3CC[C@H]4CCCC[C@@H]4C3)cc2-c2cc(C(=O)NCc3cccc(C(F)(F)F)c3)ccn2)c1 [Example 111]
5.10 to 6.00 | O=C(O)CCCC1CCN(C(=O)c2cccc(C(=O)Nc3ccc(N4CCCCC4)cc3-c3cc(C(=O)NCc4cccc(C(F)(F)F)c4)ccn3)c2)CC1 [Example 112]
5.10 to 6.00 | O=C(O)CCCC1CCN(C(=O)CCCC2CCN(C(=O)c3cccc(C(=O)Nc4ccc(N5CCCCC5)cc4-c4cc(C(=O)NCc5cccc(C(F)(F)F)c5)ccn4)c3)CC2)CC1 [Example 113]
5.10 to 6.00 | CN(CCN1CCOCC1)C(=O)c1cccc(C(=O)Nc2ccc(N3CCC[C@H]4CCCC[C@@H]43)cc2-c2cc(C(=O)NCc3cccc(C(F)(F)F)c3)ccn2)c1 [Example 114]
5.10 to 6.00 | CCCN(CCC)c1ccc(NC(=O)c2cccc(C(=O)N(C)CCN3CCOCC3)c2)c(-c2cc(C(=O)NCc3cccc(C(F)(F)F)c3)ccn2)c1 [Example 116]
5.10 to 6.00 | CN(CCN1CCOCC1)C(=O)c1cccc(C(=O)Nc2ccc(N3CCSCC3)cc2-c2cc(C(=O)NCc3cccc(C(F)(F)F)c3)ccn2)c1 [Example 118]
> 6.00 | O=C(O)Cc1cccc(SCc2cccc(C(=O)Nc3ccc(Cl)cc3-c3cc(C(=O)NCc4cccc(C(F)(F)F)c4)ccn3)c2)c1 [Example 119]
5.10 to 6.00 | CN(C)c1ccc(NC(=O)c2cccc(CSCCC(=O)O)c2)c(-c2cc(C(=O)NCc3cccc(C(F)(F)F)c3)ccn2)c1 [Example 120]
